In patent US20110044952A1, “AMPLIFICATION OF CANCER-SPECIFIC ONCOLYTIC VIRAL INFECTION BY HISTONE DEACETYLASE INHIBITORS” (Ottawa Health Research Institute, priority 2007, published 2011):

Test system: VSV-d51-GFP
Format: cell-based

Structure (SMILES) | amount of GFP-positive cells as an indication of VSV replication
Nc1ccccc1NC(=O)c1ccc(CNC(=O)OCc2cccnc2)cc1 [MS-275] | increased the amount of GFP-positive cells
O=C(/C=C/c1cccc(S(=O)(=O)Nc2ccccc2)c1)NO [PXD101] | increased the amount of GFP-positive cells
O=C(CCCCCCC(=O)Nc1ccccc1)NO [SAHA, suberoylanilide hydroxamic acid] | increased the amount of GFP-positive cells
CCCC(CCC)C(=O)O [VPA] | little to no effect
